Assay results from patent US20180344726A1, “ABUSE RESISTANT TRANSDERMAL DELIVERY DEVICES AND COMPOSITIONS COMPRISING AN OPIOID AGONIST AND A NON-TRANSDERMALLY DELIVERED N-OXIDE DERIVATIVE OF AN OPIOID ANTAGONIST FOR THE TREATMENT OF PAIN” (priority 2015, published 2018).
Values joined by “and” are separate entries in the source; they are usually repeats but may differ in a detail not shown here. Equal values may be shown once. Read-outs that look alike come from different tables or passages of the source.

Columns and labels:
[1] = Log P by potentiometric (pH-metric) octanol/water titration; format: physicochemical; settings: Neutral species, […] C., […] KCl
Method: pKa analysis was performed using a pH-metric method. […] No precipitation or degradation was observed and two pKas were determined from the potentiometric data. Log P was determined using the potentiometric (pH-metric method). The sample was titrated in various ratios of octanol/water in two titrations covering the pH range 2.0-12.0 at concentrations of 1.9-1.1 mM. The shift of the aqueous pKas in the presence of octanol was used to determine the log P of the neutral species.

[2] = Intrinsic in vitro skin permeation of saturated antagonist solutions (Franz cell); format: in vitro ADME; settings: saturated donor solution pH 5.0, human skin
Method: The determination of in vitro skin permeation was performed with saturated solutions of the respective antagonist species. Therefore an excess of the antagonist was weighed in phosphate buffer of pH 5.0 and stirred overnight. pH was monitored and, if necessary, adjusted. The cells were incubated at 32° C. Solutions were filtrated through a syringe filter (1 μm PTFE) prior to application into the diffusion cells. Concentrations of the solutions were determined.
Diffusion cells (made of glass) with a vertical application and a volume of 5 ml were used. The human skin used for the analysis came from an aesthetic operation. Belly skin from female donors was supplied from plastic surgery. After arrival, skin was visually checked whether it was without any scars and stretch marks. A layer of 200-400 μm was cut with a dermatome. The permeation area of 0.82 cm^2 was punched out of the skin.
The diffusion cell consists of a donor chamber and a receptor compartment, the skin is fixed between both. The sampling and volume replacement were executed via an autosampler.

[3] = In vitro skin permeation from prototype transdermal patches (Franz cell); format: in vitro ADME, human; settings: patches with naloxone N-oxide:opioid agonist 1:1, 3:1 or 5:1 by weight
Method: (§1) Naloxone N-oxide was incorporated into a prototype transdermal patch along with an opioid agonist. […] Batches of patches were prepared by weighing the appropriate amounts of the opioid agonist, Naloxone N-oxide and dry patch matrix of poly(meth)acrylate and dissolving in ethylacetate. The matrix solvent system was added and stirred for 30 minutes on a magnetic stirrer to yield a homogenous mixture. After mixing, the drug/polymer mixture was hand cast onto a release liner, Loparex Prime Liner FL 2000. Casting was carried out with a casting knife of variable width to achieve a target dry area weight matrix of 55 g/m^2. The cast was then dried at room temperature for 10 minutes, transferred to a convection oven and dried at 70° C. for 15 minutes and at 100° C. for 5 minutes. Finally the dried casts were hand-laminated with an occlusive backing, Scotchpak 9738, and patches were cut out of the laminate with 0.82 cm^2 cutting dies for skin permeation and 5 cm^2 for stability experiments.
The in vitro skin permeation of opioid agonist from each of the patches was tested using a Franz cell as described above.

[4] = Stability of prototype patches over 6 days at 60° C.; format: physicochemical
Method: as §1
The stability of each of the patches over 6 days at 60° C. was also tested.

[5] = +37° C.; for Mean concentration of Naloxone N-oxide in human plasma samples / Mean concentration of Naloxone N-oxide in human whole blood samples: mean of n=3; for Concentrations of Naloxone N-oxide in human plasma samples / Concentrations of Naloxone N-oxide in human whole blood samples: single replicates
Source text: Analytical procedures followed were based on those outlined in the “Guideline on Bioanalytical Method Validation”, EMA, CHMP, EWP, July 2011 and “Reflection paper for laboratories that perform the analysis or evaluation of clinical trial samples, 28 Feb. 2012, EMA/INS/GCP/532137/2010” with reference to the “Guidance for Industry, Bioanalytical Method Validation” recommendations issued by the U.S. Department of Health and Human Services, Food and Drug Administration, Center for Drug Evaluation and Research (CDER), Center for Veterinary Medicine (CVM), May 2001, BP.
Control blank human plasma and blood containing K2EDTA as an anti-coagulant, was obtained from Clinical Trials Laboratory Service or BAS volunteers and was stored at nominally −20° C. and +4° C., respectively, when not in use. The mass spectrometer used was an Applied Biosystems AP15000 with the following settings:
All instrument control, data collection, peak area integration and storage was performed using Analyst (version 1.5.2). Peak areas were then imported into Watson LIMS (version 7.2.0.02) for regression and quantification. The mass spectrometer response (peak area ratio of analyte to internal standard) of each calibration standard was calculated by Watson LIMS and plotted against the nominal (prepared) concentration. A weighted (1/x^2) least squares linear regression analysis was used to calculate an equation of the calibration line.
Any concentrations below this level are reported as below the limit of quantification (BLQ). Samples with initial concentrations above the upper limit of quantification ([…]) were re-injected with a reduced injection volume (alongside QC High with reduced injection volume) and sample concentrations interpolated against a calibration curve injected with normal injection volume.

[6] = spiked with Naloxone-N-oxide 10 ng/mL, 0 minutes
[7] = spiked with Naloxone-N-oxide 10 ng/mL, 10 minutes
[8] = spiked with Naloxone-N-oxide 10 ng/mL, 20 minutes
[9] = spiked with Naloxone-N-oxide 10 ng/mL, 30 minutes
[10] = spiked with Naloxone-N-oxide 10 ng/mL, 45 minutes
[11] = spiked with Naloxone-N-oxide 10 ng/mL, 60 minutes
[12] = spiked with Naloxone-N-oxide 10 ng/mL, 120 minutes
[13] = spiked with Naloxone-N-oxide 50 ng/mL, 0 minutes
[14] = spiked with Naloxone-N-oxide 50 ng/mL, 10 minutes
[15] = spiked with Naloxone-N-oxide 50 ng/mL, 20 minutes

C=CC[N+]1([O-])CC[C@]23c4c5ccc(O)c4O[C@H]2C(=O)CC[C@@]3(O)[C@H]1C5 (stereo partly drawn) [Naloxone N-oxide]
logP [1]: −0.42
Permeation through the skin (in words) [2]: Naloxone N-oxide did not permeate through the skin.
N-oxide permeated through the skin from patch [3]: no detectable levels
Impact on the stability of the patch [4]: does not impact on the stability of the patch
Conversion of Naloxone-N-oxide to Naloxone in plasma (in words) ([5]; 2 hour time course): small, but insignificant amount of conversion
Conversion to Naloxone in whole blood (in words) ([5]; 2 hour time course): rapidly converts to Naloxone in whole blood
Mean concentration of Naloxone N-oxide in human plasma samples [5, 6]: 10.0 ng/mL
Mean concentration of Naloxone N-oxide in human whole blood samples [5, 6]: 7.45 ng/mL
Concentrations of Naloxone N-oxide in human plasma samples [5, 6]: 9.93 ng/mL and 9.87 ng/mL and 10.2 ng/mL
Concentrations of Naloxone N-oxide in human whole blood samples [5, 6]: 7.95 ng/mL and 7.69 ng/mL and 6.70 ng/mL
Mean concentration of Naloxone N-oxide in human plasma samples [5, 7]: 10.2 ng/mL
Mean concentration of Naloxone N-oxide in human whole blood samples [5, 7]: 6.02 ng/mL
Concentrations of Naloxone N-oxide in human plasma samples [5, 7]: 9.61 ng/mL and 10.4 ng/mL and 10.7 ng/mL
Concentrations of Naloxone N-oxide in human whole blood samples [5, 7]: 5.94 ng/mL and 6.11 ng/mL and 6.01 ng/mL
Mean concentration of Naloxone N-oxide in human plasma samples [5, 8]: 10.3 ng/mL
Mean concentration of Naloxone N-oxide in human whole blood samples [5, 8]: 4.53 ng/mL
Concentrations of Naloxone N-oxide in human plasma samples [5, 8]: 10.6 ng/mL and 10.3 ng/mL and 9.93 ng/mL
Concentrations of Naloxone N-oxide in human whole blood samples [5, 8]: 4.70 ng/mL and 4.15 ng/mL and 4.75 ng/mL
Mean concentration of Naloxone N-oxide in human plasma samples [5, 9]: 9.96 ng/mL
Mean concentration of Naloxone N-oxide in human whole blood samples [5, 9]: 3.13 ng/mL
Concentrations of Naloxone N-oxide in human plasma samples [5, 9]: 9.37 ng/mL and 10.1 ng/mL and 10.4 ng/mL
Concentrations of Naloxone N-oxide in human whole blood samples [5, 9]: 2.77 ng/mL and 3.14 ng/mL and 3.47 ng/mL
Mean concentration of Naloxone N-oxide in human plasma samples [5, 10]: 10.4 ng/mL
Mean concentration of Naloxone N-oxide in human whole blood samples [5, 10]: 2.15 ng/mL
Concentrations of Naloxone N-oxide in human plasma samples [5, 10]: 10.7 ng/mL and 10.0 ng/mL and 10.4 ng/mL
Concentrations of Naloxone N-oxide in human whole blood samples [5, 10]: 2.18 ng/mL and 2.27 ng/mL and 2.01 ng/mL
Mean concentration of Naloxone N-oxide in human plasma samples [5, 11]: 10.3 ng/mL
Mean concentration of Naloxone N-oxide in human whole blood samples [5, 11]: 1.87 ng/mL
Concentrations of Naloxone N-oxide in human plasma samples [5, 11]: 10.3 ng/mL and 10.6 ng/mL and 10.1 ng/mL
Concentrations of Naloxone N-oxide in human whole blood samples [5, 11]: 1.79 ng/mL and 1.81 ng/mL and 2.02 ng/mL
Mean concentration of Naloxone N-oxide in human plasma samples [5, 12]: 10.3 ng/mL
Mean concentration of Naloxone N-oxide in human whole blood samples [5, 12]: 1.51 ng/mL
Concentrations of Naloxone N-oxide in human plasma samples [5, 12]: 10.4 ng/mL (2×) and 10.1 ng/mL
Concentrations of Naloxone N-oxide in human whole blood samples [5, 12]: 1.55 ng/mL and 1.57 ng/mL and 1.41 ng/mL
Mean concentration of Naloxone N-oxide in human plasma samples [5, 13]: 44.9 ng/mL
Mean concentration of Naloxone N-oxide in human whole blood samples [5, 13]: 45.4 ng/mL
Concentrations of Naloxone N-oxide in human plasma samples [5, 13]: 48.5 ng/mL and 45.6 ng/mL and 40.5 ng/mL
Concentrations of Naloxone N-oxide in human whole blood samples [5, 13]: 48.9 ng/mL and 41.3 ng/mL and 46.0 ng/mL
Mean concentration of Naloxone N-oxide in human plasma samples [5, 14]: 46.0 ng/mL
Mean concentration of Naloxone N-oxide in human whole blood samples [5, 14]: 25.9 ng/mL
Concentrations of Naloxone N-oxide in human plasma samples [5, 14]: 43.4 ng/mL and 48.7 ng/mL and 45.8 ng/mL
Concentrations of Naloxone N-oxide in human whole blood samples [5, 14]: 26.0 ng/mL and 25.0 ng/mL and 26.8 ng/mL
Mean concentration of Naloxone N-oxide in human plasma samples [5, 15]: 48.4 ng/mL
Mean concentration of Naloxone N-oxide in human whole blood samples [5, 15]: 20.4 ng/mL
Concentrations of Naloxone N-oxide in human plasma samples [5, 15]: 50.1 ng/mL and 47.1 ng/mL and 48.1 ng/mL
